Tests used:
INS-1 cells = assay: Insulin secretion assay in INS-1 cells (glucose at 4.2 mM); assay type: cell-based, rat; details: glucose 4.2 mM, 1 h incubation, control = glucose 4.2 mM; for Insulin secretion, % of ctrl at 10 μM of cpd: 10 μM compound; for Insulin secretion, % of ctrl at 50 μM of cpd: 50 μM compound
Procedure: Culture of Pancreatic INS-1 Cells
INS-1 cells were cultured in complete medium, RPMI1640 containing 1 mM sodium pyruvate, 50 μM 2-mercaptoethanol, 2 mM glutamine, 10 mM HEPES, 100 IU/mL penicillin, and 100 μg/mL streptomycin (CM), supplemented with 10 mM glucose, and 10% (vol/vol) heat-inactivated fetal calf serum (FCS), as described by Asfari et al. (Endocrinology 130: 167-178, 1992).
INS-1 cells were plated and cultured in 48-well plates. After 2 days of culture, the medium was removed and cells were cultured for 24 h with a medium change to 5 mM glucose, 1% FCS. The cells were then washed with Krebs-Ringer Bicarbonate HEPES buffer (KRBH; 135 mM NaCl; 3.6 mM KCl; 5 mM NaHCO3; 0.5 mM NaH2PO4; 0.5 mM MgCl2; 1.5 mM CaCl2 and 10 mM HEPES; pH 7.4) 0.1% BSA containing 2.8 mM glucose and preincubated for 30 min at 37° C. in the same buffer. The cells were then washed twice and incubated for 1 h in KRBH 0.1% BSA containing 4.2 mM glucose and different concentrations of the tested molecule. Insulin concentration in the collected supernatants was measured with ELISA using rat insulin antibody (Insulin Rat Elit PLUS, cat. ref 10-1145-01).
Insulin secretion results are expressed in % of control (glucose 4.2 mM).
Insulin Secretion in INS-1 Cells (Glucose at 4.2 mM)

[1] = tested on: diabetic N0STZ rat islets; assay: Insulin secretion in diabetic N0STZ rat islets; assay type: cell-based; details: 90 min, Means±SEM
Procedure: Insulin Secretion in Diabetic N0STZ Rat Islets. Materials and Methods. Islets Isolation and Treatments.
14±3 weeks non-fasted N0STZ (PORTHA et al., 1974) male rats (Charles Rivers-Domaine des Oncins, I'Arbresle, France) were anesthetised with sodium pentobarbital (Nembutal®: 45 mg/kg in 5 ml/kg administered intra peritoneally) and body temperature was maintained with a heat lamp.
Rat pancreatic islets of Langerhans were isolated from the pancreas of 8 rats by collagenase P (Boehringer, Meylan, France) digestion. Islets were purified by sedimentation in Hanks balanced salt solution [NaCl (137 mM); KCl (5.36 mM); MgSO4, 7 H2O (0.81 mM); Na2HPO4, 12 H2O (0.34 mM); KH2PO4 (0.44 mM); CaCl2, 2 H2O (1.26 mM); NaHCO3 (4.17 mM)] followed by Ficoll gradient separation. Islets were then hand-picked under stereoscopic microscope and batches of 3 islets were incubated for 90 minutes at 37° C. with continuous shaking under a humidified condition (95% O2, 5% CO2) in 1 ml of Krebs/Hepes pH 7 solution [NaCl (115 mM), NaHCO3 (24 mM), KCl (5 mM), MgCl2 (1 mM), CaCl2, 2 H2O (1 mM), 0.2% of Bovine serum albumin (Fraction V, fatty acid free, Boehringer, Mannheim), 10 mM Hepes] containing the required glucose or compound concentration. Compounds were dissolved in DMSO at 2.10-2M stock solutions. They were then diluted at the required concentration in Krebs/Hepes buffer containing the required glucose concentration.
At the end of incubation, media was collected and insulin levels were measured using ELISA (EUROBIO, Courtaboeuf, France).
Islets were hand-picked and incubated in the presence of increasing concentrations of compounds in the presence of glucose at 2.8 or 8 mM. At the end of incubation, media was collected and insulin levels were measured using ELISA method. Results are expressed as % of glucose control (2.8 or 8 mM) and represent Means±SEM.

[2] = glucose 2.8 mM, compound 10−4 M

SMILES	melting point	Insulin secretion, % of ctrl at 10 μM of cpd (INS-1 cells)	Insulin secretion, % of ctrl at 50 μM of cpd (INS-1 cells)	further results
O=c1c(-c2ccccc2)nc2ccccc2n1C1CC1 [Example 3-11, 1-cyclopropyl-3-phenylquinoxalin-2(1H)-one]	102 to 105 °C	371 % of ctrl	468 % of ctrl	–
CCn1c(=O)c(-c2ccc(C(F)(F)F)cc2)nc2ccccc21 [Example 6-7, 1-ethyl-3-(4-trifluoromethylphenyl)quinoxalin-2(1H)-one]	–	221 % of ctrl	466 % of ctrl	–
CCCCn1c(=O)c(-c2ccccc2)nc2ccccc21 [Example 3-16, 1-butyl-3-phenyl-quinoxalin-2(1H)-one]	40 to 43 °C	–	–	–
O=c1c(-c2ccc(Cl)cc2)nc2ccccc2n1CC(F)F [Example 3-2, 3-(4-chlorophenyl)-1-(2,2-difluoroethyl)quinoxalin-2(1H)-one]	133 to 136 °C	540 % of ctrl	666 % of ctrl	–
O=c1c(-c2ccccc2)nc2ccccc2n1CC(F)F [Example 3, 1-(2,2-difluoroethyl)-3-phenyl-quinoxalin-2(1H)-one]	85 to 88 °C	–	–	–
CCn1c(=O)c(-c2ccc(F)cc2)nc2cc(F)c(F)cc21 [Example 3-9, 1-ethyl-6,7-difluoro-3-(4-fluorophenyl)quinoxalin-2(1H)-one]	116 to 118 °C	–	–	–
CCn1c(=O)c(-c2ccc(C)cc2)nc2ccccc21 [Example 6-4, 1-ethyl-3-(4-methylphenyl)quinoxalin-2(1H)-one]	–	305 % of ctrl	391 % of ctrl	–
CCn1c(=O)c(-c2ccc(Cl)cc2)nc2cc(F)c(F)cc21 [Example 3-10, 1-ethyl-6,7-difluoro-3-(4-chlorophenyl)quinoxalin-2(1H)-one]	135 to 137 °C	–	–	–
O=c1c(-c2ccc(Cl)cc2)nc2ccccc2n1C1CC1 [Example 3-3, 3-(4-chlorophenyl)-1-cyclopropyl-quinoxalin-2(1H)-one]	102 to 105 °C	–	–	–
CCn1c(=O)c(-c2ccc(Cl)cc2)nc2ccccc21 [Example 6, 3(4-chlorophenyl)-1-ethyl-quinoxalin-2(1H)-one]	138 to 140 °C	325 % of ctrl	495 % of ctrl	Insulin secretion, % of glucose control [1, 2]: 94 ± 17 % of glucose control; Insulin secretion, % of glucose control ([1]; glucose 8 mM, compound 10−4 M): 413 ± 7 % of glucose control; Insulin secretion, % of glucose control ([1]; glucose 8 mM, compound 10−5 M): 226 ± 12 % of glucose control; Insulin secretion, % of glucose control ([1]; glucose 8 mM, compound 10−6 M): 124 ± 8 % of glucose control; Insulin secretion, % of glucose control ([1]; glucose 8 mM, compound 10−7 M): 126 ± 9 % of glucose control
O=c1c(-c2ccc(F)cc2)nc2ccccc2n1C1CC1 [Example 3-14, 1-cyclopropyl-3-(4-fluorophenyl)quinoxalin-2(1H)-one]	179 to 182 °C	–	–	–
CCn1c(=O)c(-c2ccc(F)cc2C)nc2ccccc21 [Example 6-5, 1-ethyl-3-(4-fluoro-2-methylphenyl)quinoxalin-2(1H)-one]	–	287 % of ctrl	325 % of ctrl	–

Now from value to compound, other results behind:

melting point	SMILES	Insulin secretion, % of ctrl at 10 μM of cpd (INS-1 cells)	Insulin secretion, % of ctrl at 50 μM of cpd (INS-1 cells)	further results
110 to 115 °C	CCn1c(=O)c(-c2ccc(F)cc2)nc2ccccc21 [Example 6-3, 1-ethyl-3-(4-fluorophenyl)quinoxalin-2(1H)-one]	316 % of ctrl	423 % of ctrl	Insulin secretion, % of glucose control [1, 2]: 114 ± 17 % of glucose control; Insulin secretion, % of glucose control ([1]; glucose 8 mM, compound 10−4 M): 440 ± 8 % of glucose control; Insulin secretion, % of glucose control ([1]; glucose 8 mM, compound 10−5 M): 168 ± 9 % of glucose control; Insulin secretion, % of glucose control ([1]; glucose 8 mM, compound 10−6 M): 135 ± 11 % of glucose control; Insulin secretion, % of glucose control ([1]; glucose 8 mM, compound 10−7 M): 133 ± 8 % of glucose control
77 to 80 °C	CCc1nc2ccccc2n(C2CC2)c1=O [Example 3-33, 1-cyclopropyl-3-ethylquinoxalin-2(1H)-one]	–	–	–
151 to 154 °C	O=c1c(-c2ccc(F)cc2)nc2ccccc2n1CC(F)F [Example 3-34, 1-(2,2-difluoroethyl)-3-(4-fluorophenyl)quinoxalin-2(1H)-one]	–	–	–
48 to 51 °C	CCCCn1c(=O)c(CC)nc2ccccc21 [Example 3-29, 1-butyl-3-ethylquinoxalin-2(1H)-one]	–	–	–
72 to 75 °C	CCCc1nc2ccccc2n(C2CC2)c1=O [Example 3-32, 1-cyclopropyl-3-propylquinoxalin-2(1H)-one]	–	–	–
117 to 119 °C	CCc1nc2cc(F)c(F)cc2n(CC)c1=O [Example 3-24, 1,3-diethyl-6,7-difluoro-quinoxalin-2(1H)-one]	–	–	–
